“Also recorded” adds a separate entry of the source.
Experiments:
[1] = tested on: offspring of pregnant dams; assay: Analysis of cortical patches (absence of SATB2 or TBR1 expression) in offspring after maternal immune activation; assay type: in vivo, mice
Experimental: (§1) Mice were mated overnight and females were checked daily for the presence of seminal plugs, noted as embryonic day 0.5 (E0.5). On E12.5, pregnant female mice were weighed and injected with a single dose (20 mg/kg i.p.) of poly(I:C) (Sigma Aldrich, USA) or PBS vehicle. Each dam was returned to its cage and left undisturbed until the birth of its litter. All pups remained with the mother until weaning on postnatal day 21 (P21), at which time mice were group housed at a maximum of 5 per cage with same-sex littermates. For checking the effect of poly(I:C) administration at different time points during pregnancy, the present inventors injected poly(I:C) into pregnant dams on E12.5, E15.5, or E18.5.
For cryosectioning, animals were intracardially perfused, and the brain was dissected out, fixed with 4% paraformaldehyde in PBS overnight at 4° C., and cryoprotected in 30% sucrose solution. The left hemisphere was marked with a needle and the sections were coronally sliced at 40 μm using a cryostat (Leica, USA). For vibratome sectioning, animals were intracardially perfused, and the brain was fixed with 4% paraformaldehyde in PBS overnight at 4° C. The brains were coronally sliced at 50 μm with a Leica VT1000S vibratome (Leica, USA).
Slices were permeabilized with blocking solution containing 0.4% Triton X-100 and 2% goat serum in PBS for 1 h at room temperature (RT) and then incubated with anti-rabbit-TBR1 (ab31940, Abcam, USA), anti-mouse-SATB2 (ab51502, Abcam, USA), anti-rabbit-PV (PV27, Swant, Switzerland), anti-rabbit-VIP (20077, Immunostar, USA), anti-mouse-NeuN (MAB377X, Millipore, USA), or anti-rabbit-c-Fos (sc-7270, Santa Cruz, USA) antibodies overnight at 4° C. […]
Cortical patches were identified by the absence of SATB2 or TBR1 expression. Spatial locations of the cortical patches were determined based on their distance from the midline of the brain and the layer structures of the cortex. […] The size of the cortical patches was calculated using Zen software (Carl Zeiss, Germany).

[2] = tested on: offspring of pregnant dams; assay: Ultrasonic vocalizations of pups; assay type: in vivo, mice
Experimental: as §1
On postnatal day 9, mouse pup ultrasonic vocalizations (USVs) were detected for 3 min using an Ultra-Sound Gate CM16/CMPA microphone (AviSoft, Germany) and SAS Prolab software (AviSoft, Germany) in a sound attenuation chamber under stable temperature (19-22° C.) and light control (15 lux).

In the case of “polyinosinic:polycytidylic acid [poly(I:C)]”, the “offspring with cortical patches in the S1” value (from here on “offspring”) ([1]; dams injected at E12.5, 20 mg/kg i.p.) is reported as 77%, the “offspring” value ([1]; dams injected at E15.5) is reported as 13% and the “offspring” value ([1]; dams injected at E18.5) is reported as “none”. The “USV calls made by pups upon separation from mothers at P9” value ([2]; dams injected at E12.5, versus PBS offspring) was “emitted more ultrasonic vocalization (USV) calls” and the “USV calls made by pups upon separation from mothers at P9” value ([2]; dams injected at E15.5 or E18.5) was “This finding was not observed; also recorded: such an increase was not observed”.

Source: patent publication US20170326356A1, “METHODS FOR TREATING PSYCHIATRIC DISORDERS” (priority 2016, published 2017)
